# Experimental data as given in patent publication US5310930A, “Benzofuranylimidazole derivatives, a process for their preparation and therapeutical compositions containing the same” (priority 1991, dated 1994).
# Like-named read-outs stand apart in the source and are kept apart here.
# Legend:
# [1] = Indian J. Chem. 1979, 18B, 254; cited from earlier work
# [2] = Indian J. Chem. 1979, 18B, 254; cited from earlier work; remark: listed apart in the source
# [3] = target: imidazoline preferring receptor (IR); assay: Displacement of 3H-idazoxan (4 nM) in the presence of (-)-adrenaline (IR affinity); type: binding, rat; settings: for Ki: 3H-idazoxan (4 nM), (-)-adrenaline (10^-6 M), rat cerebral cortex, mean of 10 experiments; for Selectivity IR/α1: selectivity ratio for IR/alpha1 from Ki values; for Selectivity IR/α2: selectivity ratio for IR/alpha2 from Ki values
# Experimental: (§1) Initial biological evaluation of alpha1 - and alpha2 -adrenoceptor and imidazoline preferring receptor (IR) affinities and selectivities in homogenized rat cerebral cortex were assessed by determining the Ki values of the compounds to displace ^3 H-prazosin ^3 H-clonidine as well as ^3 H-idazoxan in the presence of (-)-adrenaline according to the method of Olmos et al. (J. Neurochem. 1991, 57:1811-1813).
# (§2) This in vitro model is particularly useful as an initial screening for studying the affinity and the selectivity of these compounds on the imidazoline receptors.
# alpha2-adrenoceptor = target: T1, alpha2-adrenoceptor (Rattus norvegicus, UniProt P22909); assay: Displacement of 3H-clonidine (2 nM) (alpha2-adrenoceptor affinity); type: binding
# T1 sequence (P22909 1-465): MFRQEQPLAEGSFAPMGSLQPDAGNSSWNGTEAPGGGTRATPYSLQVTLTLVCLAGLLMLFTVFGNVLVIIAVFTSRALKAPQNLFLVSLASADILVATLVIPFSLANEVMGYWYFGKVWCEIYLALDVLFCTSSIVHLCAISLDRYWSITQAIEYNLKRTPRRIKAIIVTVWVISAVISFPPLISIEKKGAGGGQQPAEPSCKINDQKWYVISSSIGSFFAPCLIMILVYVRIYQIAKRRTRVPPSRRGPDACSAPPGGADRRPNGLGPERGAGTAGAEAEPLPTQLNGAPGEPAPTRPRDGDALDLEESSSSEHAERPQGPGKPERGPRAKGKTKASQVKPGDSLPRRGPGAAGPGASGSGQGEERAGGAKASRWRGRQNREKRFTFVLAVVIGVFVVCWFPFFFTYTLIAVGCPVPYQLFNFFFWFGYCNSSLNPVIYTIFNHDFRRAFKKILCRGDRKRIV
# alpha1-adrenoceptor = assay: Displacement of 3H-prazosin (0.5 nM) (alpha1-adrenoceptor affinity); type: binding; settings: rat cerebral cortex, mean of 10 experiments
# Experimental: as §1, §2
# rats = assay: In vivo feeding behavior in rats (cumulative food intake after i.p. administration); design: species or system rat; settings: for hyperphagic potency relative to idazoxan: 25 mg/kg i.p. versus idazoxan 10 mg/kg i.p.; for acute hyperphagic effect respect to the control group / cumulative food intake: rats; for acute hyperphagic effect respect to the control group: 1-4 h, P<0.05; for cumulative food intake: N=5
# Text: At present, certain compounds of the invention (Examples 1,2 and 3) have shown an in vivo CNS functional activity, such as: feeding behavior in rats.
# [4] = 3H-clonidine (2 nM), rat cerebral cortex, mean of 10 experiments, read-out: Affinity (Ki) Alpha2
SMILES,Ki [3] [µM],Selectivity IR/α1 [3],Selectivity IR/α2 [3],Ki (alpha1-adrenoceptor) [µM],Ki (alpha2-adrenoceptor; [4]) [µM],hyperphagic potency relative to idazoxan (rats),acute hyperphagic effect respect to the control group (rats; 25 mg/kg i.p.),further results
c1ccc2oc(C3=NCCN3)cc2c1,,,,,,,,antifungal activity [1]: without showing any noteworthy activity; antibacterial activity [2]: without showing any noteworthy activity
"Cl.c1ccc2oc(-c3ncc[nH]3)cc2c1 [Example 1, 2-(benzofuran-2-yl)imidazole hydrochloride]",0.089,410,1 125,36.5,,lower in potency than those induced by idazoxan,7-10 fold,"Ki (alpha2-adrenoceptor): 100 µM; cumulative food intake (rats; 25 mg/kg i.p., 1 h): 3.0 ± 2.0 g/kg body weight; cumulative food intake (rats; 25 mg/kg i.p., 2 h): 4.0 ± 2.1 g/kg body weight; cumulative food intake (rats; 25 mg/kg i.p., 4 h): 4.8 ± 2.0 g/kg body weight"
"Cl.Cn1ccnc1-c1cc2ccccc2o1 [Example 2, 1-methyl-2-(benzofuran-2-yl)imidazole hydrochloride]",0.015,1740,4140,26.2,62.1,lower in potency than those induced by idazoxan,7-10 fold,"potency for the I2-imidazoline receptors relative to idazoxan ([3]; data derived from binding studies): equally as potent as idazoxan; selectivity relative to idazoxan ([3]; data derived from binding studies (Table 1)): much more selective; cumulative food intake (rats; 25 mg/kg i.p., 1 h): 2.7 ± 1.5 g/kg body weight; cumulative food intake (rats; 25 mg/kg i.p., 2 h): 3.0 ± 1.5 g/kg body weight; cumulative food intake (rats; 25 mg/kg i.p., 4 h): 3.6 ± 1.4 g/kg body weight"
"COc1ccc2cc(-c3ncc[nH]3)oc2c1.Cl [Example 3, 2-(6-methoxybenzofuran-2-yl)imidazole hydrochloride]",0.151,118,372,17.8,56.1,lower in potency than those induced by idazoxan,7-10 fold,
"Brc1ccc2oc(-c3ncc[nH]3)cc2c1.Cl [Example 6, 2-(5-bromobenzofuran-2-yl)imidazole hydrochloride]",0.117,284,584,33.3,68.4,,,
"COC1(C2=NCCN2)COc2ccccc2O1 (stereo not drawn) [RX 821002, reference compound]",44.9,,0.00002,,0.0007,,,

# Continued, in another order:
Ki [3] [µM],Selectivity IR/α1 [3],Selectivity IR/α2 [3],Ki (alpha1-adrenoceptor) [µM],Ki (alpha2-adrenoceptor; [4]) [µM],SMILES,hyperphagic potency relative to idazoxan (rats),acute hyperphagic effect respect to the control group (rats; 25 mg/kg i.p.),further results
0.163,27,605,4.41,98.7,"COc1ccc2oc(-c3ncc[nH]3)cc2c1.Cl [Example 7, 2-(5-methoxybenzofuran-2-yl)imidazole hydrochloride]",,,
0.123,184,580,22.6,71.3,"CCn1ccnc1-c1cc2ccc(OC)cc2o1.Cl [Example 9, 1-ethyl-2-(6-methoxybenzofuran-2-yl)imidazole hydrochloride]",,,
0.014,,,0.091,,"c1ccc2c(c1)OCC(C1=NCCN1)O2 (stereo not drawn) [Idazoxan, reference compound]",,,"cumulative food intake (rats; 10 mg/kg i.p., 1 h): 3.7 ± 1.2 g/kg body weight; cumulative food intake (rats; 10 mg/kg i.p., 2 h): 5.6 ± 2.1 g/kg body weight; cumulative food intake (rats; 10 mg/kg i.p., 4 h): 7.4 ± 2.3 g/kg body weight"
